Measurements published in paper PMC11705217, “Substrate preference, RNA binding and active site versatility of Stenotrophomonas maltophilia nuclease SmNuc1, explained by a structural study” (The Febs Journal, 2024).

Target: T1, SmNuc1 (SmNuc1WT) (Stenotrophomonas maltophilia, UniProt B2FSF8)
T1 construct: gene Smlt3806; mature enzyme of 246 residues, 28 kDa, N-terminal Trp27 (native signal removed, expressed with MalE signal peptide), C-terminal His-tag kept, pET303/CT-His, E. coli Lemo21(DE3); three Zn2+ in active site
Experiment: in crystallo cleavage (crystal soak, […]), X-ray structure shows product […]'-GMP
Type: biochemical
Conditions: pH 6.5; only product 5'-GMP seen in structure 9EMG

Question: How did the “in crystallo cleavage (crystal soak, 5 mM), X-ray structure shows product 5'-GMP” value turn out when `Nc1nc2c(ncn2[C@@H]2O[C@@H]3COP(=O)(O)O[C@H]4[C@@H](O)[C@H](n5cnc6c(=O)[nH]c(N)nc65)O[C@@H]4COP(=O)(O)O[C@H]3[C@H]2O)c(=O)[nH]1` [c‐di‐GMP] was run?
Answer: c‐di‐GMP was soaked into a crystal of SmNuc1, resulting in the SmNuc1:GMP* structure
